Experimental data reported in US8795964B2, “GRM3 mutations and use thereof for the diagnosis and treatment of melanoma” (The United States of America, as represented by the …, priority 2010, dated 2014).

Tests used:
Type in all cases: cell-based, human
MEK = assay: Immunoblot of Erk1/2 phosphorylation in melanoma cell lines treated with AZD-6244; conditions: 1 hour treatment
Description: (§1) FIGS. 5A-5E: Melanoma lines expressing GRM3 mutants show increased sensitivity to inhibition of MEK by AZD-6244. (FIG. 5A) Immunoblot analysis of representative melanoma cell lines harboring either WT or mutant GRM3. The cells were treated with the indicated concentration of AZD-6244 and analyzed for Erk1/2 expression and phosphorylation. Cells were treated for 1 hour with AZD-6244 or vehicle alone as control. Lysates were subjected to protein blot analysis with α-Eek, anti-P-Erk1/2 (α-P-Erk1/2) and anti-GAPDH as a loading control. (FIG. 5B) Representative dose-response curves showing efficacy of AZD-6244 against GRM3 mutant lines compared to WT GRM3 lines. Relative cell number after cells were treated for 72 hours with increasing concentrations (0.01-30 μM) of AZD-6244, as estimated by CellTiterGlo and plotted as percent survival, as compared to vehicle-treated control, versus log AZD-6244 concentration in nM (where 1 is 10 nM AZD-6244). […] (FIG. 5D) fluorescence activated cells sorting (FACS) analysis of WT (2T) and A190V mutant (17T) cells showing cell cycle distribution (propidium iodide (PI) staining, x axis) versus cell counts (y axis). […] (FIG. 5D) Quantification of FACS-sorted AZD-6244-treated cells. The percentage of apoptotic cells was determined based on the sub-G1 population for vehicle-treated cells or 1 AZD-6244 treated cells. […]

[1] = tested on: melanoma cells harboring WT or mutant GRM3; assay: Flow cytometry (FACS) cell cycle analysis, sub-G1 population; conditions: AZD-6244 2 μM for 72 hours, PI staining
Description: as §1, with “lines.” for “lines. Relative cell number after cells were treated for 72 hours with increasing concentrations (0.01-30 μM) of AZD-6244, as estimated by CellTiterGlo and plotted as percent survival, as compared to vehicle-treated control, versus log AZD-6244 concentration in nM (where 1 is 10 nM AZD-6244).”
Melanoma cells were seeded into T25 flasks at a density of 3×10^5 cells per flask in normal complete T2 medium and incubated at 37° C. for 24 hours prior to addition of AZD-6244 (cat #S1008) (Selleck Chemicals LLC-Houston, Tex.). […] Cellular DNA content was analyzed on Becton Dickinson FACSCalibur™ using CellQuest software. […]

[2] = tested on: 63T-Glu573Lys melanoma cells; assay: Growth inhibition by AZD-6244 of mutant GRM3 cells (63T) transduced with empty vector or WT GRM3; conditions: 63T cells, 72 hours treatment, CellTiterGlo
Description: FIGS. 12A-12C: Expression of WT GRM3 in a mutant GRM3 background desensitizes cells to AZD-6244 inhibition. (FIG. 12A) Cell lysates from 63T cells transduced with empty vector or WT GRM3 were analyzed by western blotting using anti-FLAG-HRP and anti-GAPDH as a loading control. (FIG. 12B) Melanoma cells harboring WT (13T) or mutant GRM3 (63T-Glu573Lys) transduced with empty vector or WT GRM3 were tested for growth inhibition by AZD-6244. Cells were plated and treated with AZD-6244 concentrations ranging from 2 nM to 30 μM for 72 hours prior to analysis using CellTiterGlo and GraphPad Prism5. EC50 dose-response curves were generated from GraphPad using four-parameter nonlinear regression. (FIG. 12C) EC50 values for inhibition of cell growth by 72 h treatment with AZD-6244 of the indicated melanoma cell lines.
To test AZD-6244 inhibition of cells that had been stimulated with DCG-IV to activate MEK1/2, melanoma cells were plated in 96-well plates at 2,000 cells per well in either RPMI-1640/0.5% FBS/2.5 μM DCG-IV or RPMI-1640/10% FBS and incubated for 24 hours prior to addition of inhibitor at concentrations from 2 nM to 30 μM. Once the inhibitor was added, cells were incubated for 72 hours at 37° C. Plates were then analyzed as described above. […]

PARP cleavage = assay: Immunoblot of PARP cleavage after AZD-6244 treatment; conditions: lysates from FACS analyzed cells
[3] = tested on: Mel-STR pooled GRM3 clones; assay: Migration assay (Boyden chamber), Mel-STR pooled GRM3 clones with or without DCG-IV; conditions: 2.5 μM DCG-IV, serum-free medium in top chamber
Description: (§2) FIGS. 3A-3C: GRM3 mutations increase cell migration in vitro and in vivo. (FIG. 3A) A375 pooled GRM3 clones in the absence of stimulus (i) migrate as well as those stimulated with the group II metabotropic agonist DCG-IV (ii). A375 clones were seeded in Boyden chambers in either the absence of stimulus (i) or in the presence of 2.5 μM DCG-IV (ii) and assessed for their ability to migrate 16 hours later. (FIG. 3B) Mel-STR pooled GRM3 clones were analyzed for migration as described in (FIG. 3A). Stained wells were analyzed using a Zeiss microscope 10× lens and counted with NIH ImageJ software. (FIG. 3C) non-obese diabetic (NOD)/severe combined immunodeficiency (SCID) mice were intravenously injected with A375 pooled GRM3 clones expressing WT, G561E, S610L, E767K, or E870K GRM3, or vector alone, and examined after nine weeks. (i) Graph indicates the number of mice that had lung macrometastases. (ii) Representative images of lungs from mice injected with vector, WT or mutant expressing A375 clones.
(§3) Mel-STR pooled clones were seeded into pre-conditioned migration wells (8.0 μm—BD Biocoat, BD Biosciences) at 30,000 cells per well in serum-free medium or serum-free medium plus 2.5 μM DCG-IV in the top chamber. […] Inserts were analyzed and the number of cells migrated per field view was quantitated using ImageJ (NIH software). […]

A375 pooled GRM3 clones = assay: Migration assay (Boyden chamber), A375 pooled GRM3 clones with or without DCG-IV; conditions: 2.5 μM DCG-IV, serum-free medium in top chamber
Description: as §2, §3

Compound | relative degree of MEK inhibition, mutant versus WT GRM3 cells (MEK) | inhibition of MEK as measured by phosphorylated ERK (p-ERK) levels (MEK; mutant as well as WT GRM3 melanoma cells) | subG1 population (apoptotic cells) in mutant GRM3 cells compared to WT cells [1] | resistance of cells overexpressing WT GRM3 in a mutant GRM3 background compared to control infected cells (cell proliferation) [2] | cleaved PARP in mutant GRM3 lines compared to WT cells (PARP cleavage) | migration of vector and WT GRM3 expressing cells upon stimulation [3] | migration of vector and WT GRM3 expressing cells upon stimulation (A375 pooled GRM3 clones)
Cn1cnc2c(F)c(Nc3ccc(Br)cc3Cl)c(C(=O)NOCCO)cc21 [AZD-6244] | greater for the mutant cells than for the WT cells | inhibited MEK | significant increase | four-fold increased resistance | increased levels of cleaved PARP |  | 
N[C@H](C(=O)O)C1[C@@H](C(=O)O)[C@@H]1C(=O)O (stereo partly shown) [DCG-IV] |  |  |  |  |  | migrated to a similar extent as mutant GRM3 expressing cells in the absence of stimuli | migrated to a similar extent as mutant GRM3 expressing cells in the absence of stimuli
